Data on three compounds can be found in patent US20180282605A1, “METHOD OF MONITORING A PARAMETER OF A HYDROCARBON WELL, PIPELINE OR FORMATION” (JOHNSON MATTHEY PUBLIC LIMITHED COMPANY, priority 2015, published 2018).

Structures are written as SMILES.

The nature of the series: log P (octanol/water) of tracer anions. The series is classed as physicochemical. To be noted: log of ratio of equilibrium concentration in oil (octanol) to that in water, representative example values. The source says: The invention concerns the use of halogenated thiophene carboxylic acids or halogenated thiophene sulfonic acids, or salts of either, in tracing applications in hydrocarbon wells. Such compounds are not naturally found in hydrocarbon wells and formations and have not been previously used as tracers in such wells and formations. Tracers comprising such compounds may therefore be used as tracers in such wells and formations without the results of the tracing being affected by contamination. Moreover, the applicant has determined that non-halogenated thiophene compounds exist naturally in hydrocarbon formations and the compounds of the invention are therefore expected to be sufficiently stable, for example to have sufficient thermal stability, to survive the conditions in a hydrocarbon well. Since, unlike the naturally occurring thiophene compounds, the compounds of formula 1 are halogenated they are advantageously also detectable, for example using GC-MS, in very low concentrations, for example concentrations of 1 ppb or less, preferably concentrations of 100 ppt or less, more preferably concentrations of 10 ppt or less and yet more preferably concentrations of 1 ppt or less. The compounds of the invention may also show a high selectivity towards water instead of oil. Thus the tracer may be a water tracer. […] The log P value is a well-known value for characterising the preference of a compound for water or oil. The value is the log of the ratio of the equilibrium concentration of the compound in oil (octanol) to the equilibrium concentration of the compound in water. Thus the concentration of the compound in water is preferably at least 10 times, and more preferably at least 100 times, that of the compound in oil. It may be that the salt of the compound (or the anion of the salt) is more soluble in water than the acid. For that reason, it is preferable to use the salt as the tracer.

Regarding `O=C(O)c1csc(F)c1`, the logP (commonly the decadic logarithm of the partition coefficient of the neutral form, usually between octanol and water) was -1.81. To `O=C(O)c1csc(Cl)c1` belongs -1.35; to `Cc1cc(C(=O)O)sc1F`, -1.16.
